Experimental data from patent US4591605A, “Method and ingestible formulation for inhibiting the secretion of stomach acid” (Research Foundation of State University of New York, priority 1982, dated 1986).

Tests used:
[1] = system: histamine stimulated bullfrog gastric mucosa; test: H+ secretion by histamine-stimulated bullfrog gastric mucosa (chambered mucosa, titration); set-up: species or system bullfrogs (Rana catesbeiana); details: for activity at 500 µM: Aquarana catesbeiana, 0.5 mM drug in the secretory solution, histamine stimulated steady-state H+ secretory rate, mean ±SEM, read-out: Rate of H^+ transport (% of control); for reversibility of the inhibition of H^+ transport by elevation of secretory K^+: K+ substituted for Na+ of the secretory solution; for inhibitory effect relative to the other polyamine: spermine versus spermidine
Protocol: This experiment was carried out with gastric mucosa from bullfrogs (Rana catesbeiana). […] The area of the mounted mucosae was 1.5 cm^2. The bathing solutions were bubbled continuously with […] -5% CO2.
The normal nutrient soliution had the following composition (in mM): NaCl 87, KCl 4, CaCl2 2, MgCl2 1, KH2 PO4 1, NaHCO3 18, and glucose 11.
All experiments were conducted under open-circuit conditions at room temperature. The mucosal solutions were collected at 15-minute intervals and placed in thoroughly washed plastic vials. The K^+ content of the secretory medium was determined by atomic absorption spectrophotometer (model 360 Perkin-Elmer). The H^+ secretion was quantitated by titration using 1 mM NaOH to pH 6.5 while gassing with 100% N2.
The H^+ secretory rates are the steady-stage values before (None) and after addition of the drugs attained by the histamine stimulated mucosa. Values are mean ±SEM.

[2] = system: gastric (H^+ +K^+)-ATPase; details: vesicles preequilibrated in 150 mM KCl with 0.5 mM compound for 48 hours
Protocol: The gastric microsomal membranes were harvested. All procedures were carried out at 0°-4° C. Briefly, the fundic mucosa from the pig was desquamated and scraped to collect the oxyntic cell-enriched fractions. The mucosal scraping was homogenized gently in a medium consisting of 250 mM sucrose, 0.2 mM EDTA, and 0.2 mM Pipes buffer (pH 6.8) using a loose pestle homogenizer. The homogenate was centrifuged at 8000 g for 5 min. The process was repeated three times. All the supernatants were pooled together and layered over 40 ml of 37% sucrose in 84-ml capacity screw cap tubes and centrifuged at 100,000 g for 5 hours. The microsomal membrane bands appeared at the interface of soluble supernatant and 37% sucrose. The microsomal vesicle bands were collected, diluted with homogenizing medium, and centrifuged at 100,000 g for 90 min. The pellet was suspended in the homogenizing medium with a protein concentration of 0.5 mg/ml. The collected cellular vesicules were inverted, i.e., the interior of the vesicules originally faced the lumen side of the stomach. Vesicular accumulation of H^+ was measured at room temperature. The method uses the change in fluorescence intensity (quenching) of 9-amino-acridine or acridine orange which is proportional to the amount of dye taken up by the microsomes. The amount of dye taken up is a sensitive measure of intravesicular H^+ concentration. […]

Row | H^+ uptake by the vesicles [2] | Structure (SMILES) | activity at 500 µM [1] [%] | reversibility of the inhibition of H^+ transport by elevation of secretory K^+ [1] | inhibition of gastric H^+ transport, added into the nutrient solution ([1]; nutrient solution, concentration not given) | inhibition of gastric H^+ transport, added into the secretory solution ([1]; secretory solution, concentration not given) | inhibitory effect relative to the other polyamine [1] | inhibition of H^+ transport, added into the secretory solution ([1]; 0.25 mM in secretory solution (lumen side), inhibition increased with concentration) | rate of H^+ transport in K+-depleted mucosa ([1]; 1 mM together with 10 mM K+ in the secretory solution, within 30 min) | reversibility of inhibition by elevation of secretory K^+ in K+-depleted mucosa ([1]; 1 mM with 10 mM K+ in secretory solution, then K+ elevated) | effect on H^+ transport, added to nutrient solution ([1]; 0.5 and 1.0 mM, from the nutrient side)
1 |  | NCCCCN [Putrescine, putrescine, reference compound] | 95 ± 10 |  |  |  |  |  |  |  | 
2 |  | NCCCCNCCCN [Spermidine, spermidine] | 55 ± 2 | could also be reversed | not into the nutrient solution | inhibits gastric H^+ transport | much lower than spermine |  |  |  | 
3 | totally obliterated | NCCCNCCCCNCCCN [Spermine, spermine] | 28 ± 6 | completely reversible |  |  | more potent than spermidine | remarkable inhibition of H^+ transport | near zero | could be reversed | did not have any appreciable effect
